Tests used:
[1] = system: E. faecalis EFS0040 (clinical isolate); experiment: Intraperitoneal murine model of protection against infection (ED50, Table 21); type: in vivo, Enterococcus faecalis
From the text: (§1) A variety of in vivo models may be used to assess the antimicrobial properties of lipopeptide derivative compounds of this disclosure. For example, antimicrobial compounds of the instant disclosure may be tested for efficacy by measuring a compound's ability to protect a mouse against a microbial infection, such as an infection or disease caused by or related to Gram-positive bacteria, including Staphylococcus aureus, Streptococcus pneumoniae, and Enterococcus faecalis. […] A certain period after infection, mice are then individually treated, for example intravenously (i.v.), with a lipopeptide derivative of this disclosure.
(§2) Antimicrobial lipopeptide derivatives of the instant invention were tested for antimicrobial activity against Gram-positive bacteria in an intraperitoneal (i.p.) murine model (i.e., bacteria were injected i.p. and lipopeptide compounds were administered intravenously (i.v.)). Mice were infected with Staphylococcus aureus, Streptococcus pneumoniae, or Enterococcus faecalis, which were prepared as follows: S. aureus Smith (SAU0017, ATCC 19636) were grown in culture overnight on trypticase soy broth, harvested and then resuspended in fresh media containing 5% mucin (Sigma Chemical Co.); S. pneumoniae (SPN 0032, ATCC 10813) were grown overnight on blood agar plates and re-suspended in 0.9% sterile saline; and E. faecalis EFS0040 (clinical isolate) were grown overnight in culture on blood heart infusion broth, washed and resuspended in 0.9% saline and mixed with equal volume of sterile fecal rat extract. Swiss CD1 mice were each infected i.p. with bacteria at the following doses: S. aureus at 10^6 CFU/mouse; S. pneumoniae at 10^2 CFU/mouse; or E. faecalis at 10^7.5 CFU/mouse. […] The ED50 for each compound was calculated using the method of Reed and Meunch (Am. J. Hyg. 27: 493, 1938).

[2] = system: S. aureus Smith (SAU0017, ATCC 19636); experiment: as above; type: in vivo, Staphylococcus aureus
From the text: as §1, §2

[3] = In vivo half-life after single i.v. administration, mice; settings: female, Swiss CD1, mouse, plasma, iv, 10 mg/kg
Protocol: (§3) Yet other exemplary in vivo models can be used to characterize the pharmacokinetics and pharmacodynamic parameters of antimicrobial compounds of this disclosure. Some parameters that can be measured include an in vivo half-life of a compound, elimination rate and clearance, volume of distribution, and bioavailability. For example, briefly, compounds can be administered as a single i.v. or oral (p.o.) dose in mice or rats. At various time points (ranging from 1 minute to 72 hours), blood from treated animals is collected and the concentration of lipopeptide derivative in the ex vivo plasma can be quantified by, for example, liquid chromatography with mass spectrometric detection (LC/MS). After quantification, pharmacokinetics parameters can be calculated using methods known in the art, such as a one compartment model with mono-exponential decay and linear regression analysis (see, e.g., Fantin et al., Antimicrob. Agents Chemotherap. 35: 1413. 1991).
(§4) A pharmacokinetic parameter that can be measured, and which aids in determining efficacy, after a single i.v. administration of an antimicrobial lipopeptide derivative of the instant disclosure is the systemic half-life of the compound. Briefly, test compounds were dissolved in a 5% mannitol solution (pH was then adjusted) to a concentration of 1 mg/mL (w/v). A single intravenous injection in the lateral caudal vein of Swiss CD1 mice (5 to 6 weeks old, female) or Sprague Dawley rats (male) was used to administer the lipopeptide derivative at a final dose of 10 mg/kg. At various time points (ranging from about 4 minutes to about 24 hours for mice, and 48 or 72 hours for rats) mice were sacrificed and blood was harvested. The concentration of lipopeptide derivative in ex vivo plasma was quantified using liquid chromatography (LC) with mass spectrometric detection (MS).

[4] = in vivo; settings: male, Sprague Dawley, rat, plasma, iv, 10 mg/kg
Protocol: as §3, §4

[5] = Acute toxicity, maximum tolerated dose (MTD); settings: Swiss CD1, mouse, in vivo, iv
Protocol: Another measure of toxicity is the maximum tolerated dose (MTD), which is determined as a dose level that is not accompanied by mortality or life-threatening toxicity. The dose ratio between toxic and therapeutic effect is the therapeutic index. […] The data obtained from these cell culture assays and animal studies can be used in formulating a dosage range that is not toxic for use in human subjects. […] The dosage may vary within this range depending upon the dosage form employed and the route of administration utilized. The exact formulation, route of administration and dosage can be chosen by the individual physician in view of the patient's condition or need thereof (see, e.g., Fingl et al., 1975, In: The Pharmacological Basis of Therapeutics, Chapter 1).
For example, to examine acute toxicity, lipopeptide antibiotics of the invention can be tested in an animal model, such as Swiss CD1 mice, to determine the MTD. In certain embodiments, the animals used to test toxicity of a particular compound can be approximately 5-6 weeks old at the start of the experiment and weigh 22-26 g. The lipopeptides may be administered intravenously (i.v.) into, for example, the caudal tail vein at dose levels that range from about 50 to about 500 mg/kg, or from about 75 to about 250 mg/kg, or from about 100 to about 200 mg/kg, or at a dose range at or below 100 mg/kg. The animals are generally observed immediately after administration, 1-2 hours post administration, 5-8 hours post administration, and once daily thereafter. Observations include both the activity level of the mouse as well as any physical side effects from the administered dose. The animal weight is recorded on day 0 (immediately before dosing) and on day 7.

[6] = system: Streptococcus pneumoniae (SPN032, ATCC 1081); experiment: Intranasal murine lung infection model; type: in vivo
Protocol: (§5) Other exemplary in vivo models of infection that may be used to assess, for example, the efficacy of an antimicrobial lipopeptide of the instant disclosure include the following: (A) a mouse (murine) model of lung infection (pneumonia) wherein the bacterial infection is administered intranasally (i.n.); (B) a murine thigh muscle model wherein the bacterial infection is administered intramuscularly (i.m.) in normal or neutropenic (immunocompromised) mice; and (C) a combination murine thigh muscle model (i.m. infection)/lung (i.n.) infection.
Antimicrobial lipopeptide derivatives of the instant invention were tested for antimicrobial activity against Gram-positive bacteria in an intranasal (i.n.) murine lung infection model (i.e., bacteria were innoculated i.n. and lipopeptide compounds were administered i.v.). Streptococcus pneumoniae (SPN032, ATCC 1081) were grown on 5% sheep blood agar plates for 24 h at 37° C., harvested and then resuspended in 0.9% saline. A group of eight Swiss CD1 mice were sedated with 2% isoflurane, and each was infected i.n. dropwise to the nares with 50 μl of the prepared bacterial inoculum (i.e., a dose of about 10^6 CFU/mouse). […] The ED50 (mg/kg) for each compound was calculated using the method of Reed and Meunch (Am. J. Hyg. 27: 493, 1938).

[7] = system: Staphylococcus aureus; type: cell-based
Protocol: An exemplary pharmacokinetic parameter to aid in characterizing the properties of lipopeptide derivative compounds of the disclosure is post-antibiotic effect (PAE) of a lipopeptide derivative. For example, a bacterial culture with an initial count of 10^6 to 10^7 colony forming units per ml (CFU/ml) is treated with a certain concentration of lipopetide derivative for a certain time and a parallel (control) culture is left untreated. After treatment, the lipopetide derivative is removed from the culture (e.g., by dilution 1:1000 in fresh, lipopetide derivative-free medium), and the untreated culture is manipulated in the same way. Then the cultures are further incubated and monitored for bacterial growth over time. […] By way of background and not wishing to be bound by theory, a lipopeptide derivative having a measurable PAE activity will likely provide additional time for the host immune system to remove bacteria that might have survived antibiotic treatment and reproduced after the antibiotic is degraded, removed or filtered from the circulatory system. A longer PAE can influence the clinical outcome of antimicrobial therapy (i.e., a lower dose of a lipopetide derivative may be used to treat an infection or the frequency of a dosing regimen can be reduced).
After removal of the lipopeptide compounds, bacterial titre was determined each hour to monitor bacterial re-growth. The PAE duration is defined as the difference in time required for antimicrobial exposed bacterial cells versus unexposed bacterial cells to achieve an increase of 1 log10 unit in CFU/mL.

[8] = system: Staphylococcus aureus (SAU0017); experiment: Thigh infection model in neutropenic mice; type: in vivo; settings: Staphylococcus aureus, iv
Protocol: as §5

[9] = system: Enterococcus faecalis (EFS0004); experiment: Kill curve (bactericidal activity); type: cell-based; settings: FIG. 4A
Protocol: (§6) Another measure of the antimicrobial properties of the lipopeptide derivative compounds of this disclosure includes kill curve measurements. Kill curve experiments generally involve exposure of microorganisms to varying concentrations (e.g., multiples of a compound's MIC) of a test compound. The microorganisms may be in culture at log phase of growth or may be in a particular host tissue (e.g., lung) for up to 24 hours before exposure to a test compound. At selected time points, a sample of each culture or tissue can be analyzed for a titre of viable microorganisms, which is generally gauged against the time required for a compound to inhibit growth or kill bacteria.
(§7) Kill curve experiments were performed with both Staphylococcus aureus (SAU0017) and Enterococcus faecalis (EFS0004) organisms grown to log phase, which were suspended in cation-adjusted Mueller-Hinton broth with additional 0.625 mM Ca^+2 to a concentration of 10^6 CFU/mL. The cultures were then exposed to varying concentrations (i.e., multiples of the MIC) of a lipopeptide derivative and incubated at about 37° C. At selected time points from about 0 hours to about 24 hours, a sample of each culture was analyzed for a titre of viable organisms (CFU/ml), which was compared against the time required for each compound to kill bacteria.

[10] = system: Staphylococcus aureus (SAU0017); experiment: Kill curve (bactericidal activity); type: cell-based; settings: FIG. 5A
Protocol: as §6, §7

[11] = system: S. pneumoniae (SPN 0032, ATCC 10813); experiment: Intraperitoneal murine model of protection against infection (ED50, Table 21); type: in vivo, Streptococcus pneumoniae; settings: Streptococcus pneumoniae, ATCC10813, read-out: ED50 in Mice, S. pneumoniae (SPN0032)
From the text: as §1, §2

[12] = Swiss CD1 mice infected i.p., compound i.v.

Row | SMILES | ED50 in Mice, E. faecalis (EFS0040) [1, 12] | ED50 in Mice, S. aureus (SAU0017) [2, 12] | half-life [3] | half-life [4] | MTD at 7 days [5] | ED50 ([6]; Swiss CD1 mice, i.n. S. pneumoniae, i.v. treatment at 3, 24 and 48 hours post-infection, deaths over ten days) | Post Antibiotic Effect (hours) 0.5 × MIC ([7]; exposure one hour at 0.5 × MIC, S. aureus log phase) | Post Antibiotic Effect (hours) 1 × MIC ([7]; exposure one hour at 1 × MIC) | Post Antibiotic Effect (hours) 2 × MIC ([7]; exposure one hour at 2 × MIC) | Post Antibiotic Effect (hours) 4 × MIC ([7]; exposure one hour at 4 × MIC) | ED50 ([1]; Enterococcus faecalis, read-out: ED50 in Mice, E. faecalis (EFS0040)) | ED50 ([2]; Staphylococcus aureus, ATCC19636, read-out: ED50 in Mice, S. aureus (SAU0017)) | ED50 [8] | bactericidal or bacteriostatic in kill curve [9] | bactericidal or bacteriostatic in kill curve [10] | ED50 ([6]; Streptococcus pneumoniae, ATCC1081, iv) | ED50 [11]
1 | CCCCCCCCCCCC(=O)Nc1ccc(C(=O)NC(CC(=O)O)C(=O)NC2C(=O)N3CCCCC3C(=O)NC(C(C)C(=O)O)C(=O)NC(CC(=O)O)C(=O)NCC(=O)NC(CC(=O)O)C(=O)NCC(=O)NC(C(C)NC(=O)CCN)C(=O)NC(C(C)C)C(=O)N3CCCC3C(=O)NC2C)cc1 (stereo not drawn) [Compound 280, C12-PABA-Amphomycin-9-(β-Ala)] | 2.1 mg/kg | 6.5 mg/kg | 5.75 h | 7.07 h | 200 to 400 mg/kg | 1.8 mg/kg | 2.5 h | 1.5 h | 1.9 h | 2.4 h | – | – | – | – | – | – | –
2 | CN[C@H](CC(C)C)C(=O)N[C@H]1C(=O)N[C@@H](CC(N)=O)C(=O)N[C@H]2C(=O)N[C@H]3C(=O)N[C@H](C(=O)N[C@H](C(=O)O)c4cc(O)cc(O)c4-c4cc3ccc4O)[C@H](O)c3ccc(c(Cl)c3)Oc3cc2cc(c3O[C@@H]2O[C@H](CO)[C@@H](O)[C@H](O)[C@H]2O[C@H]2C[C@](C)(N)[C@H](O)[C@H](C)O2)Oc2ccc(cc2Cl)[C@H]1O [Vancomycin, reference compound] | – | – | – | – | – | – | – | – | – | – | 2 mg/kg | 0.9 to 2.4 mg/kg | 0.9 to 1.6 mg/kg | bacteriostatic | bacteriostatic | 3 to 4.3 mg/kg | 1.75 mg/kg

From US7868135B2, “Compositions of lipopeptide antibiotic derivatives and methods of use thereof” (priority 2003, dated 2011)
